Several values for one entry are separate records, joined by “and”; a condition that tells them apart may be missing. Identical values can stand only once. Like-named read-outs stand apart in the source and are kept apart here. Blank lines part the entries; values can stand above or below the compound they belong to.
Assays:
[1] = system: C. parvum (Bunch Grass Farms Iowa isolate); test: Time-kill curve assay in HCT-8 cells; format: cell-based, Cryptosporidium parvum; details: for time-kill curve result: compound added ~24 h after infection of HCT-8
Method: The invasion assay, DNA replication assay, asexual to sexual stage conversion, and time-kill curve assays were performed using fluorescence microscopy to enumerate parasites and host cell nuclei. Staining protocols are individually described for each assay. Unless noted otherwise, the details of image acquisition were as follows. An inverted Nikon Eclipse Ti2000 microscope with an automated stage and Perfect Focus was used with NIS-Elements Advanced Research software (Nikon, USA, version 4.30.01) to image the wells. The microscope was programmed to focus on the center of each well and then take a 3 × 3 composite image per well using a 20 × (0.45 NA) objective. Images were exported as .tiff files and parasites and host nuclei counted using a custom macro on ImageJ (National Institutes of Health, version 1.52a). Data were analyzed using Microsoft Excel and GraphPad Prism (version 6.01). […] C. parvum Iowa isolate oocysts (Bunch Grass Farms, Deary, ID) were treated to induce excystation and added to >90% confluent HCT-8 cells in 384-well plates. […] The monolayers were then washed, fixed, and stained with Vicia villosa lectin and DAPI at the indicated time points, and imaged as for the C. parvum growth assay. Separate 384-well plates were used for each time point. Parasite numbers were normalized to host cell nucleus numbers and expressed as the percentage of host cells infected. Drug-induced parasite decay was isolated from the reduction in parasites over time that occurs spontaneously in the HCT-8 culture system by expressing the number of parasites as the percentage of the number of parasites present at each time point under control (DMSO-treated) conditions.

C. parvum = C. parvum growth inhibition in HCT-8 cells (follow-up assay, Vicia villosa lectin staining); format: cell-based, Cryptosporidium parvum; details: Iowa (BGF, 10%FBS), HCT-8, single replicates, unit inferred, read-out: In vitro efficacy (Fig 2b, EC50)
Method: Follow-up assays were performed at the University of Vermont (UVM) and Calibr at Scripps Research by infection of the colonic adenocarcinoma cell line HCT-8 (ATCC CCL-244) and staining with the Vicia villosa lectin and DAPI[17],[32]. The FBS concentrations and parasites used for these assays were as indicated; parasite isolates and sources included C. parvum Iowa isolate oocysts purchased from Bunch Grass Farm (Deary, ID), C. parvum Iowa isolate oocysts purchased from the Sterling Laboratory (University of Arizona, Tucson, AZ), wild type C. parvum oocysts provided by Dr. Jenni Zambriski (Virginia Tech, Blacksburg, VA), and the C. hominis TU502 isolate purchased from Dr. Saul Tzipori (Tufts University Cummings School of Veterinary Medicine, North Grafton, MA). […] Amphotericin B (Sigma, catalog# A2942) was added to the culture media at 0.1 to 0.5 µg per mL for the DMC1 dose response assays.

[2] = system: C. parvum invasion of HCT-8 host cells; test: HCT-8 host cell invasion assay; format: cell-based, Cryptosporidium parvum; details: 11.3 µM, HCT-8 invasion 3 h
Method: The invasion assay, DNA replication assay, asexual to sexual stage conversion, and time-kill curve assays were performed using fluorescence microscopy to enumerate parasites and host cell nuclei. Staining protocols are individually described for each assay. Unless noted otherwise, the details of image acquisition were as follows. An inverted Nikon Eclipse Ti2000 microscope with an automated stage and Perfect Focus was used with NIS-Elements Advanced Research software (Nikon, USA, version 4.30.01) to image the wells. The microscope was programmed to focus on the center of each well and then take a 3 × 3 composite image per well using a 20 × (0.45 NA) objective. Images were exported as .tiff files and parasites and host nuclei counted using a custom macro on ImageJ (National Institutes of Health, version 1.52a). Data were analyzed using Microsoft Excel and GraphPad Prism (version 6.01).
Host cell invasion was assayed by allowing C. parvum to invade host cell monolayers in the presence of compound, and enumerating parasites and host cells after just 3 h (i.e., before completion of a parasite division cycle)[38]. HCT-8 cells were grown in RPMI media supplemented with 120 U per mL penicillin and 120 μg per mL streptomycin and 10% heat inactivated fetal bovine serum (complete media) and C. parvum Iowa isolate oocysts from Bunch Grass Farms (Deary, ID) were used for infection. When cells reached a confluence of >99%, media was removed and replaced with 25 µL per well of fresh media containing twice the indicated concentrations of compounds and incubated for 1 h at 37 °C in a humidified CO2 incubator. In the meantime, oocysts were induced for excystation by first treating with 10 mM hydrochloric acid (diluted with distilled water) for 10 min at 37 °C followed by 2 mM sodium taurocholate (in phosphate buffered saline (PBS) with calcium and magnesium) for 10 min at 16 °C. Before and after each treatment, oocysts were spun down at 14,000 × g for 4.5 min and supernatant was removed. […]

[3] = system: C. parvum (Bunch Grass Farms Iowa isolate); test: NOD scid gamma (NSG) mouse model of established C. parvum infection; format: in vivo, NOD scid gamma mice; details: for parasite fecal shedding (qPCR), individual mice: 2,000 mg/kg
Method: NOD scid gamma mice (NOD.Cg-Prkdcscid Il2rgtm1Wjl/SzJ)[55] (NSG) were used to model chronic Cryptosporidium infection. All NSG mouse studies were performed in compliance with animal care guidelines and with approval by the University of Vermont Institutional Animal Care and Use Committee. NSG mice with normal flora were purchased from The Jackson Laboratory (Bar Harbor, ME) and were housed for at least a week for acclimatization. […] Fecal parasite shedding was measured using a quantitative PCR (qPCR) assay, and the primers named above as Cp18s forward and Cp18s reverse.

[4] = system: C. parvum DMC1 positive parasites; parameters: method as in PMID 31015448; details: cited from earlier work

EC50 (C. parvum; Cryptosporidium parvum, HCT-8, in Vicia villosa): 1190 nM
EC50 (C. parvum): 2090 nM and 1750 nM
SMILES: CC(=O)Oc1ccccc1C(=O)Nc1ncc([N+](=O)[O-])s1 [Nitazoxanide, nitazoxanide]
% C. parvum relative to DMSO control ([1]; EC90, 0 h exposure): 92.14% and 109.39% and 105.07% and 102.65%
% C. parvum relative to DMSO control ([1]; EC90, 6 h exposure): 89.44% and 63.73% and 107.77% and 101.99%
% C. parvum relative to DMSO control ([1]; EC90, 12 h exposure): 64.07% and 50.47% and 61.96% and 52.34%
% C. parvum relative to DMSO control ([1]; EC90, 24 h exposure): 33.99% and 23.15% and 39.39% and 30.38%
% C. parvum relative to DMSO control ([1]; EC90, 48 h exposure): 66.11% and 87.75% and 96.10% and 82.36%
% C. parvum relative to DMSO control ([1]; EC90, 72 h exposure): 59.95% and 89.51% and 62.55% and 99.92%
time-kill curve result [1]: likely parasitistatic or very slow acting
time-kill curve result ([1]; listed as NTZ): No exponential decay curve can be fit
% Parasite / host nuclei ([1]; compound at 3 x EC90, 0 h exposure, listed as Nitazonxanide): 25.13% and 23.57% and 25.93% and 26.94%
% Parasite / host nuclei ([1]; compound at 3 x EC90, 6 h exposure, listed as Nitazonxanide): 30.07% and 28.12% and 27.66%
% Parasite / host nuclei ([1]; compound at 3 x EC90, 24 h exposure, listed as Nitazonxanide): 13.35% and 18.43% and 17.09% and 15.85%
% Parasite / host nuclei ([1]; compound at 3 x EC90, 48 h exposure, listed as Nitazonxanide): 16.05% and 22.2% and 25.78% and 20.53%
% Parasite / host nuclei ([1]; compound at 3 x EC90, 72 h exposure): Toxic
% Parasite / host nuclei ([1]; compound at 6 x EC90, 0 h exposure, listed as Nitazonxanide): 26.94% and 25.13% and 23.57% and 25.93%
% Parasite / host nuclei ([1]; compound at 6 x EC90, 6 h exposure, listed as Nitazonxanide): 30.15% and 26.39% and 33.45% and 27.12%
% Parasite / host nuclei ([1]; compound at 6 x EC90, 24 h exposure, listed as Nitazonxanide): 10.66% and 16.54% and 13.19% and 15.55%
% Parasite / host nuclei ([1]; compound at 6 x EC90, 48 h exposure, listed as Nitazonxanide): 24.32% and 23.51% and 19.71% and 19.93%
% Parasite / host nuclei ([1]; compound at 6 x EC90, 72 h exposure): Toxic
% Parasite / host nuclei ([1]; compound at 9 x EC90, 0 h exposure, listed as Nitazonxanide): 26.94% and 25.13% and 23.57% and 25.93%
% Parasite / host nuclei ([1]; compound at 9 x EC90, 6 h exposure, listed as Nitazonxanide): 26.17% and 22.66% and 19.45% and 20.04%
% Parasite / host nuclei ([1]; compound at 9 x EC90, 24 h exposure, listed as Nitazonxanide): 13.32% and 10.07% and 14.28% and 12.9%
% Parasite / host nuclei ([1]; compound at 9 x EC90, 48 h exposure, listed as Nitazonxanide): 23.17% and 21.12% and 20.67% and 21.26%
% Parasite / host nuclei ([1]; compound at 9 x EC90, 72 h exposure): Toxic
% Parasite / host nuclei ([1]; compound at 12 x EC90, 0 h exposure, listed as Nitazonxanide): 26.94% and 25.13% and 23.57% and 25.93%
% Parasite / host nuclei ([1]; compound at 12 x EC90, 24 h exposure, listed as Nitazonxanide): 12.84% and 10.89% and 15.16% and 10.85%
% Parasite / host nuclei ([1]; compound at 12 x EC90, 48 h exposure, listed as Nitazonxanide): 17.1% and 18.74% and 17.39% and 22.34%
% Parasite / host nuclei ([1]; compound at 12 x EC90, 72 h exposure): Toxic
% Parasite / host nuclei ([1]; compound at EC50, 0 h exposure, listed as Nitazonxanide): 26.94% and 25.13% and 23.57% and 25.93%
% Parasite / host nuclei ([1]; compound at EC50, 6 h exposure, listed as Nitazonxanide): 25.94% and 27.24% and 39.66% and 24.06%
% Parasite / host nuclei ([1]; compound at EC50, 24 h exposure, listed as Nitazonxanide): 49.74% and 52.37% and 49.99% and 64.54%
% Parasite / host nuclei ([1]; compound at EC50, 48 h exposure, listed as Nitazonxanide): 50.13% and 44.73% and 56.15% and 36.04%
% Parasite / host nuclei ([1]; compound at EC50, 72 h exposure, listed as Nitazonxanide): 36.74% and 33.35% and 25.45% and 34.5%
% Parasite / host nuclei ([1]; compound at EC90, 0 h exposure, listed as Nitazonxanide): 26.94% and 25.13% and 23.57% and 25.93%
% Parasite / host nuclei ([1]; compound at EC90, 6 h exposure, listed as Nitazonxanide): 29.07%
% Parasite / host nuclei ([1]; compound at EC90, 24 h exposure, listed as Nitazonxanide): 18.51% and 12.77% and 20.62% and 15.68%
% Parasite / host nuclei ([1]; compound at EC90, 48 h exposure, listed as Nitazonxanide): 23.29% and 31.8% and 31.94% and 28.34%
% Parasite / host nuclei ([1]; compound at EC90, 72 h exposure, listed as Nitazonxanide): 16.17% and 23.44% and 16.12% and 24.86%

SMILES: CN(C)C[C@H](O)Cn1c2ccc(Br)cc2c2cc(Br)ccc21 (racemic) [Wiskostatin, wiskostatin]
% Inhibition (normalized to DMSO control) [2]: 92%
inhibition at 11.3 µM ([2]; Cryptosporidium parvum, HCT-8, 3 h, read-out: % Inhibition (normalized to DMSO control)): 90%

SMILES: NC[C@@H]1O[C@H](O[C@H]2[C@@H](O)[C@H](O[C@@H]3[C@@H](O)[C@H](N)C[C@H](N)[C@H]3O[C@H]3O[C@H](CO)[C@@H](O)[C@H](O)[C@H]3N)O[C@@H]2CO)[C@H](N)[C@@H](O)[C@@H]1O [Paromomycin, paromomycin, reference compound]
parasite fecal shedding (qPCR), individual mice ([3]; D7 (before treatment)): 801.749 oocysts/mg feces and 822.565 oocysts/mg feces and 435.223 oocysts/mg feces and 38.903 oocysts/mg feces
parasite fecal shedding (qPCR), individual mice ([3]; D11): 28.872 oocysts/mg feces and 141.665 oocysts/mg feces and 45.072 oocysts/mg feces and 47.829 oocysts/mg feces
reduction of fecal parasite shedding ([3]; paromomycin positive control, after 4 days of treatment, once daily oral): ~90%

SMILES: O=C(Nc1ccc(Cl)cc1)N1CCN(c2ccc3nncn3n2)CC1 [MMV665917]
potency against asexual vs sexual stage parasites [4]: equal potency against asexual and sexual stage parasites
